# Assays:
# [1] = physchem; conditions: buffer, pH 7.4
# [2] = Apparent permeability across MDCK2 cells; format: ADME, cell-based, Canis lupus familiaris, MDCK-II; conditions: dog, MDCK
# [3] = Aqueous kinetic solubility of the compound at pH 6.5; format: physicochemical; conditions: read-out: Kinetic_solubility
# [4] = Drug excretion in Wistar-Han rat bile at 5 mg/kg, iv; format: ADME, organism-based; parameters: dose 5 mg/kg, route intravenous; conditions: read-out: Drug excretion
# [5] = Oral bioavailability in Wistar-Han rat at 5 mg/kg; format: ADME, organism-based; conditions: in vivo
# [6] = Oral bioavailability in Beagle dog at 4 mg/kg; format: ADME, organism-based, Canis lupus familiaris; conditions: in vivo
# [7] = Apparent permeability across human Caco2 cells at pH 7.4; format: ADME, cell-based; conditions: Caco-2, pH 7.4
# [8] = Apparent permeability across human Caco2 cells at pH 6.5; format: ADME, cell-based; conditions: Caco-2, pH 6.5
# [9] = Oral bioavailability in Beagle dog at 5 mg/kg; format: ADME, organism-based, Canis lupus familiaris; conditions: in vivo
# [10] = Volume of distribution at steady state in Wistar-Han rat at 1 mg/kg, iv and 50 mg/kg, po; format: ADME, organism-based; conditions: in vivo, read-out: Vdss
# [11] = Volume of distribution at steady state in Beagle dog at 0.5 mg/kg, iv and 5 mg/kg, po; format: ADME, organism-based, Canis lupus familiaris; conditions: in vivo, read-out: Vdss
# [12] = Oral bioavailability in Wistar-Han rat at 50 mg/kg; format: ADME, organism-based; conditions: in vivo
logD [1],Papp [2],Structure (SMILES),also measured
2.7,–,CCC[C@@H](Oc1cc(C)c(-n2cc(C(F)(F)F)cn2)c(C)c1)c1ccc(C(=O)NCCC(=O)O)cc1,–
1.3,0.6 ×10⁻⁶ cm/s,CCCC(Nc1ccc(-n2cnc(C(F)(F)F)c2)cc1)c1ccc(C(=O)NCCC(=O)O)cc1 (racemic),solubility kinetic [3]: 350 µM
1.9,4 ×10⁻⁶ cm/s,CCCC(Nc1ccc(-n2cc(C(F)(F)F)cn2)cc1)c1ccc(C(=O)NCCC(=O)O)cc1 (racemic),solubility kinetic [3]: 350 µM
2.1,4.6 ×10⁻⁶ cm/s,CCCC(Nc1ccc(-n2cc(C(F)(F)F)cn2)nc1)c1ccc(C(=O)NCCC(=O)O)cc1 (racemic),–
1.3,0.8 ×10⁻⁶ cm/s,CCCC(Nc1cnc(-n2cc(C(F)(F)F)cn2)nc1)c1ccc(C(=O)NCCC(=O)O)cc1 (racemic),solubility kinetic [3]: 380 µM
2.4,3.1 ×10⁻⁶ cm/s,CCCC(Oc1ccc(-n2cc(C(F)(F)F)cn2)cc1)c1ccc(C(=O)NCCC(=O)O)cc1 (racemic),solubility kinetic [3]: 400 µM
2.5,–,CCCC(Oc1ccc(-n2cc3ccccc3n2)cc1)c1ccc(C(=O)NCCC(=O)O)cc1 (racemic),–
1.3,0.8 ×10⁻⁶ cm/s,CCCC(Nc1ccc(-n2cc(C(F)(F)F)cn2)cn1)c1ccc(C(=O)NCCC(=O)O)cc1 (racemic),–
2.2,2.7 ×10⁻⁶ cm/s,CCCC(Nc1cc(C)c(-n2cc(C(F)(F)F)cn2)c(C)c1)c1ccc(C(=O)NCCC(=O)O)cc1 (racemic),–
–,2.3 ×10⁻⁶ cm/s,CCCC(Oc1ccc(-n2cnc(C(F)(F)F)c2)cc1)c1ccc(C(=O)NCCC(=O)O)cc1 (racemic),–
2.6,3.4 ×10⁻⁶ cm/s,CCCC(Oc1ccc(-n2cc(C(F)(F)F)cn2)nc1)c1ccc(C(=O)NCCC(=O)O)cc1 (racemic),–
1.5,–,CCCC(Oc1cnc(-n2cc(C(F)(F)F)cn2)nc1)c1ccc(C(=O)NCCC(=O)O)cc1 (racemic),–
2.6,–,O=C(O)CCNC(=O)c1ccc(C(Oc2ccc(-n3cc(C(F)(F)F)cn3)cc2)C2CCC2)cc1 (racemic),–
3.2,–,CC(C)CC(Oc1ccc(-n2cc(C(F)(F)F)cn2)cc1)c1ccc(C(=O)NCCC(=O)O)cc1 (racemic),–
3.3,–,O=C(O)CCNC(=O)c1ccc(C(Oc2ccc(-n3cc(C(F)(F)F)cn3)cc2)C2CCCC2)cc1 (racemic),–
3.7,–,CC(C)(C)C(Oc1ccc(-n2cc(C(F)(F)F)cn2)cc1)c1ccc(C(=O)NCCC(=O)O)cc1 (racemic),–
2.6,–,CC(C)C(Oc1ccc(-n2cc(C(F)(F)F)cn2)cc1)c1ccc(C(=O)NCCC(=O)O)cc1 (racemic),–
1.7,–,O=C(O)CCNC(=O)c1ccc(C(Oc2ccc(-n3cc(C(F)(F)F)cn3)cc2)C2CC2)cc1 (racemic),–

logD [1],Papp [2],Structure (SMILES),also measured
1.9,–,CCC(Oc1ccc(-n2cc(C(F)(F)F)cn2)cc1)c1ccc(C(=O)NCCC(=O)O)cc1 (racemic),–
2.6,–,CCCC(Oc1ccc(-n2cc(Cl)cn2)cc1)c1ccc(C(=O)NCCC(=O)O)cc1 (racemic),solubility kinetic [3]: 70 µM
2.1,–,CCCC(Oc1ccc(-n2cc(C)cn2)cc1)c1ccc(C(=O)NCCC(=O)O)cc1 (racemic),–
2,–,CCCC(Oc1ccc(-n2cc(F)cn2)cc1)c1ccc(C(=O)NCCC(=O)O)cc1 (racemic),–
1.7,–,CCCC(Oc1ccc(-n2cccn2)cc1)c1ccc(C(=O)NCCC(=O)O)cc1 (racemic),–
1.2,–,CCCC(Oc1ccc(-n2cc(C#N)cn2)cc1)c1ccc(C(=O)NCCC(=O)O)cc1 (racemic),–
1.4,–,CCCC(Oc1ccc(-n2cc(OC)cn2)cc1)c1ccc(C(=O)NCCC(=O)O)cc1 (racemic),–
0.5,–,CCCC(Oc1ccc(-n2cc(C(=O)N(C)C)cn2)cc1)c1ccc(C(=O)NCCC(=O)O)cc1 (racemic),–
2.8,–,CCCC(Oc1ccc(-n2cc(C(F)(F)F)c(C)n2)cc1)c1ccc(C(=O)NCCC(=O)O)cc1 (racemic),–
2.7,–,CCCC(Oc1ccc(-n2cc3c(n2)CCCC3)cc1)c1ccc(C(=O)NCCC(=O)O)cc1 (racemic),–
2.6,–,CCCC(Oc1cc(C)c(-n2cc(C(F)(F)F)cn2)c(C)c1)c1ccc(C(=O)NCCC(=O)O)cc1 (racemic),–
2.6,–,CCCC(Oc1ccc(-n2cc(C(F)(F)F)cn2)c(C)c1)c1ccc(C(=O)NCCC(=O)O)cc1 (racemic),–
–,–,"CCCC(Nc1ccc(-n2cnc(C(F)(F)F)c2)cc1)c1ccc(C(=O)NCCC(=O)O)cc1 (single isomer, unassigned)",dose excreted [4]: 57%
–,–,"CCCC(Oc1ccc(-n2cc(C(F)(F)F)cn2)cc1)c1ccc(C(=O)NCCC(=O)O)cc1 (single isomer, unassigned)",bioavailability [5]: 60%
–,2.2 ×10⁻⁶ cm/s,"CCCC(Oc1ccc(-n2cc3ccccc3n2)cc1)c1ccc(C(=O)NCCC(=O)O)cc1 (single isomer, unassigned)",bioavailability [5]: 3%
–,–,CCC[C@H](c1ccc(C(=O)NCCC(=O)O)cc1)[C@H](c1ccc(Cl)cc1)c1c[nH]c2c(F)cc(C)cc12 [MK-3577],solubility kinetic [3]: 23 µM; bioavailability [6]: 30%; bioavailability [5]: 7%
2.5,3.6 ×10⁻⁶ cm/s,CCC[C@H](Oc1cc(C)c(-n2cc(C(F)(F)F)cn2)c(C)c1)c1ccc(C(=O)NCCC(=O)O)cc1 [PF-06291874],Papp [7]: 8.5 ×10⁻⁶ cm/s; Papp [8]: 30 ×10⁻⁶ cm/s; bioavailability [9]: 100%; Vd [10]: 0.4 L/kg; Vd [11]: 0.31 L/kg; bioavailability [12]: 100%

# Source: ChEMBL document CHEMBL2380306 (Bioorg Med Chem Lett, 2013)
